Values quoted from earlier work in patent US10925895B2, “Composition and method of using medicament for treatment of cancers and tumors” (priority 2014, dated 2021).
Where two headings read alike, the source gives them in different places.

| Compound | effectiveness against Enterococcus faecalis (Enterococcus faelicalis) | effectiveness as tissue dissolving agent (organic tissue; 5.25% for 40 minutes) | effectiveness as tissue dissolving agent (organic tissue; at 1.3-2.5%) |
| --- | --- | --- | --- |
| [Ca+2].[OH-].[OH-] [Calcium hydroxide, calcium hydroxide] | ineffective |  |  |
| OCl [Sodium hypochlorite, sodium hypochlorite] | not effective | highly effective | ineffective |
